According to patent US10588317B2, “Isoxazoline-substituted benzamides and analogues as insecticides” (priority 2015, dated 2020):

Key:
Assay type in all cases: in vivo
[1] = test system: Diabrotica balteata; assay: Diabrotica balteata (corn root worm), sprayed maize sprouts; conditions: 96 h, application rate 200 ppm, L2 larvae, 4 days after infestation, read-out: effect in at least one of the two categories (mortality or growth inhibition)
How it was run: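 Read-out at 4 days post-infestation: mortality and growth inhibition relative to untreated samples. Test solutions (200 ppm, from DMSO stocks) were sprayed onto agar-held maize sprouts, which after drying received 6–10 L2 larvae per well.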

[2] = test system: Euschistus heros; assay: Euschistus heros (neotropical brown stink bug), sprayed soybean leaves; conditions: 120 h, application rate 200 ppm, N2 nymphs, 5 days after infestation, read-out: effect in at least one of the two categories (mortality or growth inhibition)
How it was run: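 Scored 5 days post-infestation versus untreated controls, for both mortality and growth inhibition: N2 nymphs placed on agar-mounted soybean leaves previously sprayed at 200 ppm with aqueous test solutions from DMSO stocks and left to dry.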

[3] = test system: Myzus persicae; assay: Myzus persicae (green peach aphid): feeding/contact activity; conditions: 144 h, application rate 200 ppm, aphid population of mixed ages, 6 days after infestation, read-out: mortality
Protocol: Sunflower leaf discs were placed onto agar in a 24-well microtiter plate and sprayed with aqueous test solutions prepared from 10'000 ppm DMSO stock solutions. After drying, the leaf discs were infested with an aphid population of mixed ages. The samples were assessed for mortality 6 days after infestation.

[4] = test system: Plutella xylostella; assay: Plutella xylostella (diamond back moth), artificial diet; conditions: 120 h, application rate 200 ppm, L2 larvae, 5 days after infestation, read-out: effect in at least one of the two categories (mortality or growth inhibition)
How it was run: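 L2 larvae (10-15 per well) fed on compound-treated, dried artificial diet; test solutions diluted in water from 10'000 ppm DMSO stocks. Readout 5 days post-infestation as mortality or growth inhibition versus untreated diet, with at least 80% effect at 200 ppm as threshold.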

[5] = test system: Spodoptera littoralis; assay: Spodoptera littoralis (Egyptian cotton leaf worm), sprayed cotton leaf discs; conditions: foliar, 72 h, application rate 200 ppm, L1 larvae, 3 days after infestation, read-out: control (mortality, anti-feeding effect, growth inhibition)
How it was run: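 Five first-instar larvae placed on dried cotton leaf discs (on agar) previously sprayed with aqueous dilutions of 10'000 ppm DMSO stocks. Scored at 3 days against untreated discs for mortality, feeding inhibition and growth inhibition; any category above untreated counts as control.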

[6] = test system: Spodoptera littoralis; assay: Spodoptera littoralis (Egyptian cotton leaf worm), uptake by lettuce roots from agar; conditions: 144 h, read-out: effect in at least one of the three categories (mortality, anti-feeding, or growth inhibition);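 note: 12.5 ppm test rate in agar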
How it was run: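 Systemic test: Spodoptera eggs placed on lettuce leaves from seedlings raised 7 days on agar containing the compound (diluted from 10'000 ppm DMSO stock). Six days after infestation, larvae scored against untreated controls for mortality, feeding deterrence and growth inhibition.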

[7] = test system: Tetranychus urticae; assay: Tetranychus urticae (two-spotted spider mite): feeding/contact activity; conditions: 192 h, application rate 200 ppm, mixed population (mobile stages), 8 days after infestation, read-out: mortality
Protocol: Bean leaf discs on agar in 24-well microtiter plates were sprayed with aqueous test solutions prepared from 10'000 ppm DMSO stock solutions. After drying the leaf discs were infested with a mite population of mixed ages. The samples were assessed for mortality on mixed population (mobile stages) 8 days after infestation.

[8] = test system: Thrips tabaci; assay: Thrips tabaci (onion thrips): feeding/contact activity; conditions: 144 h, application rate 200 ppm, Thrips population of mixed ages, 6 days after infestation, read-out: mortality
Protocol: Sunflower leaf discs were placed on agar in 24-well microtiter plates and sprayed with aqueous test solutions prepared from 10'000 ppm DMSO stock solutions. After drying the leaf discs were infested with a Thrips population of mixed ages. The samples were assessed for mortality 6 days after infestation.

CCN(C)S(=O)(=O)N1C[C@@H](NC(=O)c2ccc(C3=NO[C@@](c4cc(Cl)c(Cl)c(Cl)c4)(C(F)(F)F)C3)cc2C)CO1 [Compound A72, N-[(4R)-2-[ethyl(methyl)sulfamoyl]isoxazolidin-4-yl]-2-methyl-4-[(5S)-5-(3,4,5-trichlorophenyl)-5-(trifluoromethyl)-4H-isoxazol-3-yl]benzamide]
≥ 80%: percent effect (mortality or growth inhibition) at 200 ppm [1] | percent effect (mortality or growth inhibition) at 200 ppm [2] | mortality at 200 ppm [3] | percent effect (mortality or growth inhibition) at 200 ppm [4] | mortality at 200 ppm [5] | percent control (mortality, anti-feedant effect or growth inhibition) at 12.5 ppm [6] | mortality at 200 ppm [7] | mortality at 200 ppm [8]

CCN(C)S(=O)(=O)N1C[C@@H](NC(=O)c2ccc(C3=NO[C@@](c4cc(Cl)c(F)c(Cl)c4)(C(F)(F)F)C3)cc2Cl)CO1 [Compound A131, 2-chloro-4-[(5S)-5-(3,5-dichloro-4-fluoro-phenyl)-5-(trifluoromethyl)-4H-isoxazol-3-yl]-N-[(4R)-2-[ethyl(methyl)sulfamoyl]isoxazolidin-4-yl]benzamide]
≥ 80%: percent effect (mortality or growth inhibition) at 200 ppm [1] | percent effect (mortality or growth inhibition) at 200 ppm [2] | mortality at 200 ppm [3] | percent effect (mortality or growth inhibition) at 200 ppm [4] | mortality at 200 ppm [5] | percent control (mortality, anti-feedant effect or growth inhibition) at 12.5 ppm [6] | mortality at 200 ppm [7] | mortality at 200 ppm [8]

C#CCNS(=O)(=O)N1C[C@@H](NC(=O)c2ccc(C3=NO[C@@](c4cc(Cl)cc(Cl)c4)(C(F)(F)F)C3)cc2Cl)CO1 [Compound A158]
≥ 80%: percent effect (mortality or growth inhibition) at 200 ppm [1] | percent effect (mortality or growth inhibition) at 200 ppm [2] | mortality at 200 ppm [3] | percent effect (mortality or growth inhibition) at 200 ppm [4] | mortality at 200 ppm [5] | percent control (mortality, anti-feedant effect or growth inhibition) at 12.5 ppm [6] | mortality at 200 ppm [7] | mortality at 200 ppm [8]

Cc1cc(C2=NO[C@@](c3cc(Cl)c(F)c(Cl)c3)(C(F)(F)F)C2)ccc1C(=O)NC1CON(S(=O)(=O)N(C)C)C1 (stereo partly shown) [Compound A10]
≥ 80%: percent effect (mortality or growth inhibition) at 200 ppm [1] | percent effect (mortality or growth inhibition) at 200 ppm [2] | mortality at 200 ppm [3] | percent effect (mortality or growth inhibition) at 200 ppm [4] | mortality at 200 ppm [5] | percent control (mortality, anti-feedant effect or growth inhibition) at 12.5 ppm [6] | mortality at 200 ppm [7] | mortality at 200 ppm [8]

CCS(=O)(=O)N1C[C@@H](NC(=O)c2ccc(C3=NO[C@@](c4cc(Cl)c(F)c(Cl)c4)(C(F)(F)F)C3)cc2Cl)CO1 [Compound A146]
≥ 80%: percent effect (mortality or growth inhibition) at 200 ppm [1] | percent effect (mortality or growth inhibition) at 200 ppm [2] | mortality at 200 ppm [3] | percent effect (mortality or growth inhibition) at 200 ppm [4] | mortality at 200 ppm [5] | percent control (mortality, anti-feedant effect or growth inhibition) at 12.5 ppm [6] | mortality at 200 ppm [7] | mortality at 200 ppm [8]

Cc1cc(C2=NO[C@@](c3cc(Cl)cc(Cl)c3)(C(F)(F)F)C2)ccc1C(=O)N[C@H]1CON(S(=O)(=O)NC2CC2)C1 [Compound A155]
≥ 80%: percent effect (mortality or growth inhibition) at 200 ppm [1] | percent effect (mortality or growth inhibition) at 200 ppm [2] | mortality at 200 ppm [3] | percent effect (mortality or growth inhibition) at 200 ppm [4] | mortality at 200 ppm [5] | percent control (mortality, anti-feedant effect or growth inhibition) at 12.5 ppm [6] | mortality at 200 ppm [7] | mortality at 200 ppm [8]

CCS(=O)(=O)N1C[C@@H](NC(=O)c2ccc(C3=NO[C@@](c4cc(Cl)cc(C(F)(F)F)c4)(C(F)(F)F)C3)cc2C)CO1 [Compound A120, 4-[(5S)-5-[3-chloro-5-(trifluoromethyl)phenyl]-5-(trifluoromethyl)-4H-isoxazol-3-yl]-N-[(4R)-2-ethylsulfonylisoxazolidin-4-yl]-2-methyl-benzamide]
≥ 80%: percent effect (mortality or growth inhibition) at 200 ppm [1] | percent effect (mortality or growth inhibition) at 200 ppm [2] | mortality at 200 ppm [3] | percent effect (mortality or growth inhibition) at 200 ppm [4] | mortality at 200 ppm [5] | percent control (mortality, anti-feedant effect or growth inhibition) at 12.5 ppm [6] | mortality at 200 ppm [7] | mortality at 200 ppm [8]

CS(=O)(=O)N1C[C@@H](NC(=O)c2ccc(C3=NO[C@@](c4cc(Cl)cc(Cl)c4)(C(F)(F)F)C3)cc2Cl)CO1 [Compound A116]
≥ 80%: percent effect (mortality or growth inhibition) at 200 ppm [1] | percent effect (mortality or growth inhibition) at 200 ppm [2] | mortality at 200 ppm [3] | percent effect (mortality or growth inhibition) at 200 ppm [4] | mortality at 200 ppm [5] | percent control (mortality, anti-feedant effect or growth inhibition) at 12.5 ppm [6] | mortality at 200 ppm [7] | mortality at 200 ppm [8]

Cc1cc(C2=NO[C@@](c3cc(Cl)c(Cl)c(Cl)c3)(C(F)(F)F)C2)ccc1C(=O)NC1CON(S(=O)(=O)N(C)CC#N)C1 (stereo partly drawn) [Compound A87, N-[2-[cyanomethyl(methyl)sulfamoyl]isoxazolidin-4-yl]-2-methyl-4-[(5S)-5-(3,4,5-trichlorophenyl)-5-(trifluoromethyl)-4H-isoxazol-3-yl]benzamide]
≥ 80%: percent effect (mortality or growth inhibition) at 200 ppm [1] | percent effect (mortality or growth inhibition) at 200 ppm [2] | mortality at 200 ppm [3] | percent effect (mortality or growth inhibition) at 200 ppm [4] | mortality at 200 ppm [5] | percent control (mortality, anti-feedant effect or growth inhibition) at 12.5 ppm [6] | mortality at 200 ppm [7] | mortality at 200 ppm [8]

Cc1cc(C2=NO[C@@](c3cc(Cl)cc(Cl)c3)(C(F)(F)F)C2)ccc1C(=O)NC1CON(S(=O)(=O)N(C)C)C1 (stereo partly shown) [Compound A41]
≥ 80%: percent effect (mortality or growth inhibition) at 200 ppm [1] | percent effect (mortality or growth inhibition) at 200 ppm [2] | mortality at 200 ppm [3] | percent effect (mortality or growth inhibition) at 200 ppm [4] | mortality at 200 ppm [5] | percent control (mortality, anti-feedant effect or growth inhibition) at 12.5 ppm [6] | mortality at 200 ppm [7] | mortality at 200 ppm [8]

Cc1cc(C2=NO[C@@](c3cc(Cl)cc(Cl)c3)(C(F)(F)F)C2)ccc1C(=O)N[C@H]1CON(S(=O)(=O)N(C)C)C1 [Compound A39]
≥ 80%: percent effect (mortality or growth inhibition) at 200 ppm [1] | percent effect (mortality or growth inhibition) at 200 ppm [2] | mortality at 200 ppm [3] | percent effect (mortality or growth inhibition) at 200 ppm [4] | mortality at 200 ppm [5] | percent control (mortality, anti-feedant effect or growth inhibition) at 12.5 ppm [6] | mortality at 200 ppm [7] | mortality at 200 ppm [8]
